Results published in patent US20250179047A1, “5-[7-(3,4-DIHYDRO-1H-ISOQUINOLINE-2-CARBONYL)-1,2,3,4 TETRAHYDROISOQUINOLIN-6-YL]-1H-PYRROLE-3-CARBOXAMIDE DERIVATIVES, PHARMACEUTICAL COMPOSITIONS CONTAINING THEM AND THEIR USES AS PRO-APOPTOTIC AGENTS” (LES LABORATOIRES SERVIER, priority 2022, published 2025).

Legend:
BCL2 D103Y = BCL2 D103Y (Homo sapiens, UniProt P10415, D103Y); assay: TR-FRET competitive binding assay, BCL2 D103Y; settings: Ki determined from IC50, read-out: TR_FRET EKI_Bcl2 D103Y
Procedure, shortened: (§1)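 Terbium-labelled N-terminal Halo-fusion BCL2 or BCLXL (E. coli), 0.5 nM, competed against fluorescein-labelled PUMA peptide (2 or 20 nM) for 2 h at 23° C in 50 mM Hepes pH 7.5, 150 mM NaCl, 5% DMSO. TR-FRET 520/495 nm ratio gave IC50 by four-parameter fit; Ki derived from IC50.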

BCL2 G101V [1] = target: BCL2 G101V (Homo sapiens, UniProt P10415, G101V); assay: TR-FRET competitive binding assay, BCL2 G101V; settings: BCL2 G101V; Ki determined from IC50; read-out: TR_FRET EKI_Bcl2 G101V
Procedure, shortened: as §1

BCL2 G101V [2] = assay: TR-FRET competitive binding assay, BCL2 G101V; set-up: species or system human; settings: ratio Ki BCL2 G101V / Ki BCL2 WT
Procedure, shortened: as §1

BCLXL WT = BCLXL WT (Homo sapiens (Human), UniProt Q07817); assay: TR-FRET competitive binding assay, BCLXL WT; settings: for Ki: BCLXL WT, Ki determined from IC50, read-out: TR_FRET EKI BclxL; for TR_FRET EKI BCLxL/WT selectivty ratio: ratio Ki BCLxL / Ki BCL2 WT
BCLXL WT, sequence (Q07817 other isoform, or with tags, fused parts or gaps): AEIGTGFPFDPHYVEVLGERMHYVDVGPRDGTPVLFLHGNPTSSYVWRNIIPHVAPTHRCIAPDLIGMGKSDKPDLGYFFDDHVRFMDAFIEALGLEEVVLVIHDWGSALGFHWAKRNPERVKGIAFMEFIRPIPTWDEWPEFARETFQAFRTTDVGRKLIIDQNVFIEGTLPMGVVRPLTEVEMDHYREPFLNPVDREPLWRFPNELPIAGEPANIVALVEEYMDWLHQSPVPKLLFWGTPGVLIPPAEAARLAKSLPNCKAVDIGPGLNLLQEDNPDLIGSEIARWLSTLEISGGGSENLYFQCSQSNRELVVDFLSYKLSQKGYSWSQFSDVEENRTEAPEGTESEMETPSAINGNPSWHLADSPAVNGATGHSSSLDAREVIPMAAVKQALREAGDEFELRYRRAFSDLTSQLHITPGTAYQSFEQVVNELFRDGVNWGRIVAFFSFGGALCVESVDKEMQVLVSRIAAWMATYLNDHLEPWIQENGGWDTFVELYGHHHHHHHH
Procedure, shortened: as §1

KMS-12-PE Bcl-2 WT = assay: In vitro cytotoxicity CellTiter-Glo 48 h, KMS-12-PE Bcl-2 WT; type: cell-based; settings: Homo sapiens, KMS-12-PE, C50 = concentration needed to reach 50% of the cellular viability
Procedure, shortened: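 KMS-12-PE myeloma cells lentivirally transduced with Bcl-2 WT or G101V (TagRFP-sorted), exposed to compound 11-point dose-response for 48 h at 37 °C, 5% CO2. Viability read by CellTiter-Glo ATP luminescence; C50 is the concentration giving 50% cellular viability.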

BCL2 WT = BCL2 WT (Homo sapiens (Human), UniProt P10415); assay: TR-FRET competitive binding assay, BCL2 WT; settings: Ki determined from IC50, read-out: TR_FRET EKI_Bcl2 WT
Procedure, shortened: as §1

Ki (BCL2 D103Y) [nM] | Ki (BCL2 G101V [1]) [nM] | TR_FRET EKI G101V/WT selectivty ratio (BCL2 G101V [2]) | Ki (BCLXL WT) [nM] | TR_FRET EKI BCLxL/WT selectivty ratio (BCLXL WT) | Ki (BCL2 WT) [nM] | Structure (SMILES) | IC50 (KMS-12-PE Bcl-2 WT) [µM]
0.11 | 2.6 | 58.9 | 7.7 | 175.0 | 0.04 | COc1ccc(N(C(=O)c2cc(-c3cc4c(cc3C(=O)N3Cc5ccccc5C[C@H]3C)CN(C(=O)Cc3ccc(OCCN5CCOCC5)cc3F)CC4)n(C)c2C)c2ccccc2)cn1 [Example 192, 5-[2-[2-[2-fluoro-4-(2-morpholinoethoxy)phenyl]acetyl]-7-[(3R)-3-methyl-3,4-dihydro-1H-isoquinoline-2-carbonyl]-3,4-dihydro-1H-isoquinolin-6-yl]-N-(6-methoxy-3-pyridyl)-1,2-dimethyl-N-phenyl-pyrrole-3-carboxamide] | 0.0083
0.1 | 3.1 | 72.0 | 11 | 256.9 | 0.04 | Cc1c(C(=O)N(c2ccccc2)c2cnn(C(F)F)c2)cc(-c2cc3c(cc2C(=O)N2Cc4ccccc4C[C@H]2C)CN(C(=O)Cc2ccc(OCCN4CCOCC4)cc2F)CC3)n1C [Example 193, N-[1-(difluoromethyl)pyrazol-4-yl]-5-[2-[2-[2-fluoro-4-(2-morpholinoethoxy)phenyl]acetyl]-7-[(3R)-3-methyl-3,4-dihydro-1H-isoquinoline-2-carbonyl]-3,4-dihydro-1H-isoquinolin-6-yl]-1,2-dimethyl-N-phenyl-pyrrole-3-carboxamide] | 0.0062
0.08 | 1 | 35.7 | 3.3 | 115.0 | 0.03 | Cc1c(C(=O)N(c2ccccc2)c2cnc3c(cnn3C)c2)cc(-c2cc3c(cc2C(=O)N2Cc4ccccc4C[C@H]2C)CN(C(=O)Cc2ccc(OCCN4CCOCC4)cc2F)CC3)n1C [Example 194, 5-[2-[2-[2-fluoro-4-(2-morpholinoethoxy)phenyl]acetyl]-7-[(3R)-3-methyl-3,4-dihydro-1H-isoquinoline-2-carbonyl]-3,4-dihydro-1H-isoquinolin-6-yl]-1,2-dimethyl-N-(1-methylpyrazolo[3,4-b]pyridin-5-yl)-N-phenyl-pyrrole-3-carboxamide] | 0.0026
0.05 | 0.9 | 63.6 | 5 | 359.1 | 0.014 | Cc1c(C(=O)N(c2ccccc2)c2cnc3c(cnn3C)c2)cc(-c2cc3c(cc2C(=O)N2Cc4ccccc4C[C@H]2C)CN(C(=O)Cc2ccc(OCCN4CCOCC4)cc2)CC3)n1C [Example 195, 1,2-dimethyl-5-[7-[(3R)-3-methyl-3,4-dihydro-1H-isoquinoline-2-carbonyl]-2-[2-[4-(2-morpholinoethoxy)phenyl]acetyl]-3,4-dihydro-1H-isoquinolin-6-yl]-N-(1-methylpyrazolo[3,4-b]pyridin-5-yl)-N-phenyl-pyrrole-3-carboxamide] | 0.0041
0.09 | 2.7 | 83.2 | 9.6 | 301.1 | 0.03 | COCCn1cc(N(C(=O)c2cc(-c3cc4c(cc3C(=O)N3Cc5ccccc5C[C@H]3C)CN(C(=O)Cc3ccc(OCCN5CCOCC5)cc3)CC4)n(C)c2C)c2ccccc2)cn1 [Example 196, N-[1-(2-methoxyethyl)pyrazol-4-yl]-1,2-dimethyl-5-[7-[(3R)-3-methyl-3,4-dihydro-1H-isoquinoline-2-carbonyl]-2-[2-[4-(2-morpholinoethoxy)phenyl]acetyl]-3,4-dihydro-1H-isoquinolin-6-yl]-N-phenyl-pyrrole-3-carboxamide] | 0.0089
0.05 | 1.2 | 63.9 | 9.9 | 523.3 | 0.02 | Cc1c(C(=O)N(c2ccccc2)c2cnn(C)c2)cc(-c2cc3c(cc2C(=O)N2Cc4ccccc4C[C@H]2C)CN(C(=O)Cc2ccc(OCCN4CCOCC4)cc2F)CC3)n1C [Example 197, 5-[2-[2-[2-fluoro-4-(2-morpholinoethoxy)phenyl]acetyl]-7-[(3R)-3-methyl-3,4-dihydro-1H-isoquinoline-2-carbonyl]-3,4-dihydro-1H-isoquinolin-6-yl]-1,2-dimethyl-N-(1-methylpyrazol-4-yl)-N-phenyl-pyrrole-3-carboxamide] | 0.0023
0.15 | 5.5 | 88.0 | 26 | 419.8 | 0.06 | Cc1c(C(=O)N(c2ccc(F)cc2)c2cnn(C)c2)cc(-c2cc3c(cc2C(=O)N2Cc4ccccc4C[C@H]2C)CN(C(=O)Cc2ccc(OCCN4CCOCC4)cc2)CC3)n1C [Example 200, N-(4-fluorophenyl)-1,2-dimethyl-5-[7-[(3R)-3-methyl-3,4-dihydro-1H-isoquinoline-2-carbonyl]-2-[2-[4-(2-morpholinoethoxy)phenyl]acetyl]-3,4-dihydro-1H-isoquinolin-6-yl]-N-(1-methylpyrazol-4-yl)pyrrole-3-carboxamide] | 0.0155
0.11 | 1.2 | 22.9 | 10.9 | 214.7 | 0.05 | COc1ncc(N(C(=O)c2cc(-c3cc4c(cc3C(=O)N3Cc5ccccc5C[C@H]3C)CN(C(=O)Cc3ccc(OCCN5CCOCC5)cc3F)CC4)n(C)c2C)c2ccccc2)cc1C#N [Example 202, N-(5-cyano-6-methoxy-3-pyridyl)-5-[2-[2-[2-fluoro-4-(2-morpholinoethoxy)phenyl]acetyl]-7-[(3R)-3-methyl-3,4-dihydro-1H-isoquinoline-2-carbonyl]-3,4-dihydro-1H-isoquinolin-6-yl]-1,2-dimethyl-N-phenyl-pyrrole-3-carboxamide] | 0.0256
0.06 | 0.5 | 23.3 | 8.5 | 404.3 | 0.02 | Cc1ccc(N(C(=O)c2cc(-c3cc4c(cc3C(=O)N3Cc5ccccc5C[C@H]3C)CN(C(=O)Cc3ccc(OCCN5CCOCC5)cc3F)CC4)n(C)c2C)c2ccccc2)cc1C#N [Example 203, N-(3-cyano-4-methyl-phenyl)-5-[2-[2-[2-fluoro-4-(2-morpholinoethoxy)phenyl]acetyl]-7-[(3R)-3-methyl-3,4-dihydro-1H-isoquinoline-2-carbonyl]-3,4-dihydro-1H-isoquinolin-6-yl]-1,2-dimethyl-N-phenyl-pyrrole-3-carboxamide] | 0.0091
0.17 | 1.9 | 30.8 | 9.6 | 152.4 | 0.06 | Cc1ccc(N(C(=O)c2cc(-c3cc4c(cc3C(=O)N3Cc5ccccc5C[C@H]3C)CN(C(=O)Cc3ccc(OCCN5CCOCC5)cc3)CC4)n(C)c2C)c2ccccc2)cc1C#N [Example 204, N-(3-cyano-4-methyl-phenyl)-1,2-dimethyl-5-[7-[(3R)-3-methyl-3,4-dihydro-1H-isoquinoline-2-carbonyl]-2-[2-[4-(2-morpholinoethoxy)phenyl]acetyl]-3,4-dihydro-1H-isoquinolin-6-yl]-N-phenyl-pyrrole-3-carboxamide] | 0.0111
0.19 | 7.4 | 100.3 | 20 | 270.3 | 0.07 | COC[C@@H]1Cc2ccccc2CN1C(=O)c1cc2c(cc1-c1cc(C(=O)N(c3ccccc3)c3cnn(C(F)F)c3)c(C)n1C)CCN(C(=O)Cc1ccc(OCCN3CCOCC3)cc1)C2 [Example 205, N-[1-(difluoromethyl)pyrazol-4-yl]-5-[7-[(3S)-3-(methoxymethyl)-3,4-dihydro-1H-isoquinoline-2-carbonyl]-2-[2-[4-(2-morpholinoethoxy)phenyl]acetyl]-3,4-dihydro-1H-isoquinolin-6-yl]-1,2-dimethyl-N-phenyl-pyrrole-3-carboxamide] | 0.0126
0.09 | 4.5 | 321.5 | 107 | 7642.9 | 0.014 | Cc1c(C(=O)N(c2ccccc2)c2cnn(C(F)F)c2)cc(-c2cc3c(cc2C(=O)N2Cc4ccccc4C[C@H]2CN2CC4(CCC4)C2)CN(C(=O)Cc2ccc(OCCN4CCOCC4)cc2)CC3)n1C [Example 206, 5-[7-[(3S)-3-(2-azaspiro[3.3]heptan-2-ylmethyl)-3,4-dihydro-1H-isoquinoline-2-carbonyl]-2-[2-[4-(2-morpholinoethoxy)phenyl]acetyl]-3,4-dihydro-1H-isoquinolin-6-yl]-N-[1-(difluoromethyl)pyrazol-4-yl]-1,2-dimethyl-N-phenyl-pyrrole-3-carboxamide] | 0.047
